The test system of test [1] is HUVEC. The experiment in a line: Cell viability of HUVEC cells at 20 ug/ml. The test is classed as functional, Homo sapiens.
The subject of test [2] is HUVEC. Description: Antiproliferative activity against HUVEC cells after 72 hrs. It is filed as functional, cell-based. Particulars: Homo sapiens.

Values after ≈ are worked out from the molar mass of the structure shown.

What is called EC50 is the concentration that produces a half-maximal response. In the case of `CC(C)=CCC[C@](C)(O)[C@H]1CC[C@]2(C)[C@@H]1[C@H](O)C[C@@H]1[C@@]3(C)CC[C@H](O)C(C)(C)[C@@H]3CC[C@]12C`, the Activity in test [1] amounted to 16.5%. Besides, a half-maximal effect in test [2] (EC50) was put at 2.16 µg/mL (≈ 4.69 µM).

For `CC(C)=CCC[C@](C)(O)[C@H]1CC[C@]2(C)[C@@H]1[C@H](O)C[C@@H]1[C@@]3(C)CC[C@H](O)C(C)(C)[C@@H]3[C@@H](O)C[C@]12C`, the Activity in test [1] is on record as 16.5%. For the same molecule, the EC50 in test [2] was 6.64 µg/mL (≈ 13.9 µM).

The record behind these values is ChEMBL document CHEMBL1144819, “Antitumor agents. 261. 20(S)-protopanaxadiol and 20(s)-protopanaxatriol as antiangiogenic agents and total assignment of (1)H NMR spectra” (J Nat Prod, 2008).
